Assays:
Assay type in all cases: cell-based
[1] = system: Streptococcus mutans UA159; assay: Colony-forming units of Streptococcus mutans biofilm after treatment with solutions of active substances (Example 8); conditions: for reduction in the colony-forming units: active substance in solution, final concentrations 0.25 μg/ml and 2.5 μg/ml, 20 hours anaerobic at 37° C.; for antimicrobial action in relation to Streptococcus mutans: solutions of the active substances at specific low concentrations (Example 8)
Protocol: In a THB nutrition medium, an over-night culture of Streptococcus mutans UA159 was cultivated anaerobically. That over-night culture was diluted to an optimum density (at 620 nm; OD620) of from 0.01 to 0.03 with THB (with addition of 0.5% (GN) of saccharose) so that a dilute bacterial suspension was obtained.
(§1) Stock solutions and corresponding diluted solutions of chlorohexidine, triclosan and carolacton were produced in methanol. […] of those solutions to be tested were introduced by pipette into microtitration plates; 9 parallel wells were used per substance and concentration. The methanol was evaporated (under a hood) and then 200 μl of the dilute bacterial suspension were added. The final concentrations of the active substances in the 200 μl of bacterial suspension were 0.25 μg/ml and 2.5 μg/ml. The plates were incubated anaerobically at 37° C. without agitation for 20 hours. Subsequently, the excess was removed by pipette, the biofilm was washed with a physiological cooking salt solution (0.85% of NaCl) and the biofilm was scraped off with a pipette. The biofilms from three parallel wells were suspended in 500 μl of PBS. From that biofilm suspension, a serial dilution in PBS was prepared. After each dilution step, vortexing was carried out for 1 minute. From each dilution, 50 μl was distributed three times on agar plates (TH medium). The plates were incubated for three days in the CO2 cupboard at 37° C., then the colony-forming units (CFU) were counted and the bacteria density in relation to […] of biofilm suspension was calculated.

[2] = system: Streptococcus mutans UA159; assay: Biofilm inhibition on hardened tooth filling material test members, LIVE/DEAD BacLight fluorescence (Example 9); conditions: for biofilm inhibition (in words): active substance in hardened tooth filling material, carolacton 25 μg/ml, triclosan and chlorohexidine 2500 μg/ml
Protocol: The admixture from example 2 was used as the tooth filling material according to the invention.
(§2) In addition, three tooth filling materials similar to example 2 were prepared, where carolacton was replaced with triclosan in a first comparison admixture, carolacton was replaced with chlorohexidine in a second comparison admixture and carolacton was omitted in a third comparison admixture (control).
(§3) From each of the tooth filling materials produced, by hardening the tooth filling material 10 dental test members were produced with a diameter of 7 mm and a height of 1 mm and adhesively bonded with a small quantity of the tooth filling material in a total of 40 wells of a 96-well microtitration plate of polystyrene (Greiner Bio-One, μ Clear Plate Black, Frickenhausen, Germany).
In a THB nutrition medium, an over-night culture of Streptococcus mutans UA159 was produced under anaerobic conditions. The over-night culture obtained was diluted to an optimum density (at 620 nm; OD620) of from 0.01 to 0.03 with THB (with addition of 0.5% (G/V) of saccharose). Subsequently, 200 μl of the dilute over-night culture was introduced by pipette into the wells of the 96-well microtitration plate provided with the dental test members. The microtitration plate was subsequently incubated for 20 hours at 37° C. under anaerobic conditions in an incubator.
The determination of the biofilm inhibition was carried out with a LIVE/DEAD BacLight kit L13152 (Invitrogen, Molecular Probes, Inc. Eugene, Oreg., USA), taking note of the manufacturer's instructions. The kit comprises two dye solutions, propidium iodide and SYT09 which each discolour nucleic acids. The excesses of the biofilms in the individual wells of the 96-well microtitration plate were removed. In order to remove plankton-like or loosely bonded bacteria, the biofilm was carefully washed with 200 μl of a 0.85% NaCl solution, mixed with 200 μl of a 1:1 admixture of propidium iodide and SYT09 and subsequently left to stand for 15 minutes and at ambient temperature with light being excluded. The measurement of the fluorescence was carried out on a Wallac Victor3™ 1420Multilabel Counter (Perkin-Elmer Life Sciences) provided with detectors and filters for measuring the fluorescence at 630 nm (red) and 535 nm (green). The biofilm inhibition is given in percent as a quotient between the quotient of green and red fluorescence of the sample with the active substance (carolacton, chlorohexidine or triclosan) and the quotient of green and red fluorescence of the sample without any active substance (control).

[3] = system: Streptococcus mutans UA159; assay: Colony-forming units in the biofilm on tooth filling material test members (Example 9); conditions: triclosan and chlorohexidine at a hundred times the concentration of carolacton
Protocol: as §1, §2, §3
In a THB nutrition medium, an over-night culture of Streptococcus mutans UA159 was produced under anaerobic conditions. […]

Compound | reduction in the colony-forming units [1] | antimicrobial action in relation to Streptococcus mutans [1] | Biofilm inhibition [%] ([2]; active substance 2500 μg/ml in hardened tooth filling material similar to example 2, 20 hours, green/red fluorescence quotient vs control) | biofilm inhibition (in words) [2] | effect on number of CFU in the biofilm (in words) [3] | inhibition at 2500 µg/mL ([2]; Streptococcus mutans, UA159, 20 h, read-out: Biofilm inhibition [%]) [%] | inhibition at 25 µg/mL ([2]; Streptococcus mutans, UA159, active substance 25 μg/ml in hardened tooth filling material of example 2, 20 hours, green/red fluorescence quotient vs control) [%]
N=C(NCCCCCCNC(=N)NC(=N)Nc1ccc(Cl)cc1)NC(=N)Nc1ccc(Cl)cc1 [chlorohexidine] | very powerful reduction in the colony-forming units | very powerful antimicrobial activity | 1 | scarcely influence the biofilm formation | neither triclosan nor chlorohexidine, although used at a hundred times the concentration of carolacton, results in a powerful reduction of the number of CFU | – | –
Oc1cc(Cl)ccc1Oc1ccc(Cl)cc1Cl [triclosan] | very powerful reduction in the colony-forming units | very powerful antimicrobial activity | – | scarcely influence the biofilm formation | neither triclosan nor chlorohexidine, although used at a hundred times the concentration of carolacton, results in a powerful reduction of the number of CFU | 1 | –
COC(CC(=O)O)C(C)C(=O)C(C)/C=C(\C)C1OC(=O)C(O)C(O)/C=C/C(C)CCCC1C (stereo not drawn) [carolacton] | merely weakly reduces the number of colony-forming units | only has a weak antimicrobial action | – | very good biofilm inhibition | powerful inhibiting effect | – | 51
